In brackets after ≈: the same amount, converted by molar mass.
Test system: Mycobacterium tuberculosis variant bovis BCG
Assay: microbe, parasite or virus in culture
Type: functional

| SMILES | MIC90 [µM] |
| --- | --- |
| Cc1ccccc1CN1CCc2nc(N3CCN(c4ncccn4)CC3)ncc2C1 | 4 (≈ 1.61 µg/mL) |
| O=C(CCC(=O)NNC(=O)c1ccco1)NNC(=O)c1ccco1 | 8.6 (≈ 2.87 µg/mL) |
| Cc1nnc(NCc2cccc(Cl)c2)c2ccccc12 | 1.5 (≈ 0.426 µg/mL) |
| CCOc1ccc(C(=O)Nc2nc(-c3ccccn3)cs2)cc1OCC | 5.6 (≈ 2.07 µg/mL) |
| COc1ccc(N(C(=O)CNc2ccccc2Nc2ccccc2)C2CCCC2)cc1 | 2.1 (≈ 0.873 µg/mL) |
| CNC1=NC(=O)[C@H]([C@H](C)c2c[nH]c3ccccc23)O1 [INDOMYCIN] | 5 (≈ 1.29 µg/mL) |
| CCc1c(C)nc(-n2nc(C)cc2NC(=O)c2ccccc2SC)[nH]c1=O | 3.6 (≈ 1.38 µg/mL) |
| Cc1nn(-c2nc(-c3ccccn3)nc3ccsc23)c(N)c1C#N | 7 (≈ 2.33 µg/mL) |
| Cc1ccc(-c2nnc(C)c(N3CCCC3)n2)cc1 | 10 (≈ 2.54 µg/mL) |
| Cc1ccc2c(NC(=O)Nc3ccc(N(C)C)cc3)cc(C)nc2c1 | 5.8 (≈ 1.94 µg/mL) |
| Cc1ccc(C)c(-c2nnc(NC(=O)c3ccc(Br)s3)o2)c1 | 1.6 (≈ 0.605 µg/mL) |
| O=C(CSc1nnc(Nc2ccccc2)s1)NNC(=O)c1cccs1 | 8.2 (≈ 3.21 µg/mL) |
| Cc1ccc(NC(=O)c2nc(N3CCCN(C)CC3)ccc2Cl)cc1F | 8.8 (≈ 3.32 µg/mL) |
| CC(c1nc2ccccc2s1)N(C)C(=O)c1ccc2c(c1)CC(c1ccccc1)OC2=O (stereo not given) | 1.6 (≈ 0.708 µg/mL) |
| CCc1c(C)nc(-n2nc(C)cc2NC(=O)COc2ccccc2F)[nH]c1=O | 2.8 (≈ 1.08 µg/mL) |
| CC1=NN(C(=O)c2ccco2)C(O)(c2ccccc2)C1 (stereo not given) | 4.2 (≈ 1.14 µg/mL) |
| COc1cccc(C(=O)Nc2nc(-c3ccccn3)cs2)c1 | 7.6 (≈ 2.37 µg/mL) |
| COc1cc(C(F)(F)F)nc2ccc(C)c(N)c12 | 9.7 (≈ 2.49 µg/mL) |
| COc1cc(C2c3c(-c4ccccc4)n[nH]c3C(=O)N2c2ccc(Cl)cc2)ccc1O (stereo not given) | 5.4 (≈ 2.33 µg/mL) |
| Cc1nc(-c2cccc(C(F)(F)F)c2)nc(N2CCNCC2)c1C | 0.5 (≈ 0.168 µg/mL) |
| COc1ccc(-c2cc(NC(=O)c3ccc(F)cc3Cl)ccc2OC)cc1 | 8.2 (≈ 3.16 µg/mL) |
| Cc1ccc(-c2nnc(NC(=O)c3ccc(Cl)s3)o2)c(C)c1 | 4 (≈ 1.34 µg/mL) |
| O=C(NNC(=O)C1CC1C(=O)O)c1ccncc1 (stereo not given) | 6.8 (≈ 1.69 µg/mL) |
| N#Cc1nc(-c2ccc(F)cc2)oc1S(=O)(=O)c1ccc(Br)cc1 | 1.8 (≈ 0.733 µg/mL) |
| COc1ccc(-c2nc(NC(=O)C3CCCN3S(=O)(=O)c3cccs3)sc2C)cc1 (stereo not given) | 6.9 (≈ 3.2 µg/mL) |

| SMILES | MIC90 [µM] |
| --- | --- |
| COc1cc(-c2ccccc2)c(Cl)cc1C(=O)Nc1cccc2c1CCN(C)C2 | 5.9 (≈ 2.4 µg/mL) |
| c1ccc(SCc2nn3c(-c4ccccc4)nnc3s2)cc1 | 7.5 (≈ 2.43 µg/mL) |
| O=C(Nc1nnc(SCc2ccc(F)cc2)s1)c1ccccn1 | 4.6 (≈ 1.59 µg/mL) |
| O=C(NC1CCNCC1)c1nn(-c2ccc(Cl)cc2)c(=O)cc1N1CCC(Cc2ccccc2)CC1 | 7.6 (≈ 3.85 µg/mL) |
| Cc1ccc(-c2nnc(NC(=O)c3ccc(C#N)cc3)o2)cc1C | 3.7 (≈ 1.18 µg/mL) |
| Cc1c(C(=O)[C@@H]2C[C@H]2CN(Cc2ccccn2)Cc2ccccn2)sc2ccccc12 | 7.1 (≈ 3.04 µg/mL) |
| CCc1ccc(S(=O)(=O)Nc2cc(CN3CCN(CCC(C)C)CC3)ccc2C)cc1.O=C(O)C(F)(F)F.O=C(O)C(F)(F)F | 6.3 |
| Cc1cc(=O)[nH]c(-n2nc(C)cc2NC(=O)C2(c3ccc(Cl)cc3)CCCC2)n1 | 1.3 (≈ 0.535 µg/mL) |
| COc1cc(CN2CCC3(C=Cc4ccccc43)CC2)cc2c1OCO2 | 3.1 (≈ 1.08 µg/mL) |
| Brc1c(-c2ccc3c(c2)OCO3)nc2ncccn12 | 2.4 (≈ 0.764 µg/mL) |
| Cc1nc2ccccn2c1C(=O)NCc1ccc2c(c1)OCO2 | 3 (≈ 0.928 µg/mL) |
| COc1ccc(-c2cnc(Nc3cccc(S(=O)(=O)CCN4CCc5ccccc5C4)c3)nc2)cn1 | 5.7 (≈ 2.86 µg/mL) |
| Cc1cc2c(NC(=O)NC3CCN(c4ccc(C(F)(F)F)cn4)CC3)cccc2c(C)n1 | 3.1 (≈ 1.37 µg/mL) |
| CN1CCN(c2ccc(C(F)(F)F)cc2NC(=O)c2ccccn2)CC1 | 7.2 (≈ 2.62 µg/mL) |
| O=C(Nc1nc(-c2ccccn2)cs1)C1COc2ccccc2O1 (stereo not given) | 3.7 (≈ 1.26 µg/mL) |
| C=CCNc1nc(SC)nc2ccccc12 | 4.4 (≈ 1.02 µg/mL) |
| COc1ccc(-c2ccc(Nc3cccc(S(=O)(=O)CCN(C)CCc4ccccn4)c3)nc2)cn1 | 7.3 (≈ 3.68 µg/mL) |
| O=C(Nc1nnc(-c2ccc(F)cc2)o1)c1ccc(C(F)(F)F)cc1 | 6 (≈ 2.11 µg/mL) |
| O=C(Nc1nnc(SCc2ccc(Cl)cc2)s1)c1ccccn1 | 4 (≈ 1.45 µg/mL) |
| O=C(Nc1nnc(-c2ccc(Cl)cc2)o1)c1cc(F)cc(F)c1 | 4.1 (≈ 1.38 µg/mL) |
| C=CCNCCS(=O)(=O)c1cccc(Nc2ccc(-c3ccsc3)cn2)c1 | 6 (≈ 2.4 µg/mL) |
| Fc1ccc2nc(Nc3nc(-c4ccccn4)cs3)sc2c1 | 1 (≈ 0.328 µg/mL) |
| Nc1ccc(C(=O)C(=O)c2ccc(N)cc2)cc1 | 0.4 (≈ 0.0961 µg/mL) |
| CCOc1ccc(OCc2ccc(C(=O)NNC(=O)c3ccc([N+](=O)[O-])o3)cc2)cc1 | 1.6 (≈ 0.681 µg/mL) |
| CCCCc1ccc(C(=O)Nc2nccc3ccccc23)nc1 | 7.2 (≈ 2.2 µg/mL) |

| SMILES | MIC90 [µM] |
| --- | --- |
| CN(C)S(=O)(=O)c1ccc(C(=O)Nc2nnc(-c3ccc(Cl)s3)o2)cc1 | 5.7 (≈ 2.35 µg/mL) |
| O=C(O)c1ccccc1COc1ccccc1 | 0.5 (≈ 0.114 µg/mL) |
| c1ccc(-c2nnc(Sc3ccnc(N4CCN(c5ccncc5)CC4)n3)n2CCCN2CCOCC2)cc1 | 6.3 (≈ 3.43 µg/mL) |
| CN(C)CCCC(=O)Nc1[nH]nc2cnc(-c3cncc(-c4ccccc4)c3)cc12 | 8.4 (≈ 3.36 µg/mL) |
| CN(C)c1ccc(NC(=O)Nc2ccccc2C(F)(F)F)cc1 | 6.4 (≈ 2.07 µg/mL) |
| COc1ccc(-c2ccc(Nc3cccc(S(=O)(=O)CCNCCn4nc(C)cc4C)c3)nc2)cn1 | 6.9 (≈ 3.5 µg/mL) |
| CCOc1ccc(-c2nc(CNCCc3ccc(F)cc3)cs2)cc1.O=C(O)C(=O)O | 9.9 |
| NC1CCCN(c2ncnc(-c3ccc4c(c3)CCC4)n2)C1 (stereo not given) | 9.3 (≈ 2.75 µg/mL) |
| CC(C)(C)c1ccc(-c2nnc(SCC(=O)OC3CCCCC3)o2)cc1 | 8.1 (≈ 3.03 µg/mL) |
| Br.CC1(C)N=C(N)N=C(N)N1OCCc1ccc2ccccc2c1 | 8.8 |
| CCc1c(C)nc(-n2nc(C)cc2NC(=O)CCc2ccccc2)[nH]c1=O | 3.8 (≈ 1.39 µg/mL) |
| CC(C)N(C(=O)CSc1nc2cc(Cl)ccc2[nH]1)C(C)C | 9.5 (≈ 3.1 µg/mL) |
| Cc1ccc(C)c(-c2nnc(NC(=O)c3ccc4c(c3)CCCC4)o2)c1 | 3 (≈ 1.04 µg/mL) |
| O=C(Nc1ccccc1-c1nc(Br)cs1)OCC1CCNCC1 | 8 (≈ 3.17 µg/mL) |
| Cc1ccc(-c2ccnc(-c3cccc(-c4ccccn4)n3)c2)cc1 | 6.1 (≈ 1.97 µg/mL) |
| COc1cc(C(=O)Nc2nc(-c3ccccn3)cs2)ccc1OCC(C)C | 7 (≈ 2.68 µg/mL) |
| CNC(=O)c1cc(Nc2ncc(F)c(N(C)c3ccc4c(C)[nH]nc4c3)n2)cc(OCCCN)c1 | 7.9 (≈ 3.78 µg/mL) |
| C=CCNCCS(=O)(=O)c1cccc(Nc2ncc(-c3ccc(OC)nc3)cn2)c1 | 3.6 (≈ 1.53 µg/mL) |
| CCCOc1c(Br)cc(CNCC)cc1OCC | 7.8 (≈ 2.47 µg/mL) |
| Cc1cccc(CC(=N)NCCOc2cccc(Cl)c2)c1 | 5.5 (≈ 1.67 µg/mL) |
| CN(C)c1ccc(NC(=O)Nc2cnsn2)cc1 | 3.2 (≈ 0.843 µg/mL) |
| CC(=O)CCN1C(=O)C(=O)c2cc(Br)ccc21 | 7.9 (≈ 2.34 µg/mL) |
| CC(=O)Oc1ccc(Cn2cc(C(=O)NCc3ccccc3)sc2=O)cc1 | 6.9 (≈ 2.64 µg/mL) |
| Cn1cc(-c2noc(CCNCCC(C)(C)C)n2)c2ccccc21 | 9.3 (≈ 3.04 µg/mL) |
| CCCCS(=O)(=O)Nc1ccc2cnn(C)c2c1 | 0.5 (≈ 0.134 µg/mL) |

| SMILES | MIC90 [µM] |
| --- | --- |
| c1ccc(COc2ccc(CN3CCC4(CC3)OCCc3sccc34)cc2)nc1 | 6.4 (≈ 2.6 µg/mL) |
| Cc1cc(C)c2nc(N3CCN(C)CC3)cc(C)c2c1 | 8.9 (≈ 2.4 µg/mL) |
| O=C(Nc1nc(-c2ccccn2)cs1)c1ccc2c(c1)CCCC2 | 6.8 (≈ 2.28 µg/mL) |
| c1ccc(Cc2nnc(Sc3ccnc(N4CCN(c5ccncc5)CC4)n3)n2CCCN2CCOCC2)cc1 | 2.7 (≈ 1.51 µg/mL) |
| CN1CCc2c(cccc2NC(=O)c2cc(Br)cc3c2OCC3)C1 | 9.8 (≈ 3.8 µg/mL) |
| CN1CCN(c2cc(-c3ccncc3)nc(-c3ccccc3)n2)CC1 | 8.5 (≈ 2.82 µg/mL) |
| Cc1ccc2nc(C(F)(F)F)c(C(=O)NCc3ncc(C(F)(F)F)cc3Cl)n2c1 | 9.9 (≈ 4.32 µg/mL) |
| Cc1cc(C)n(Cc2ccc(C(=O)NC3CCC(C(C)(C)C)CC3)cc2)n1 (stereo not given) | 6.5 (≈ 2.39 µg/mL) |
| N[C@@H]1CCN(c2nc(-c3ccccc3)nc3ccccc23)C1 | 1.4 (≈ 0.407 µg/mL) |
| Cc1ccc2nc(C)c(C(=O)NCc3cccs3)n2c1 | 0.5 (≈ 0.143 µg/mL) |
| Cc1nc2ccccn2c1C(=O)Nc1ccc(C(C)(C)C)cc1 | 4.9 (≈ 1.51 µg/mL) |
| CC(=O)NCCn1c(Sc2ccnc(N3CCN(c4ccncc4)CC3)n2)nnc1-c1ccco1 | 2.6 (≈ 1.28 µg/mL) |
| CC1(C(=O)Nc2cccc3cccnc23)CCN1CC1CC1 (stereo not given) | 4.6 (≈ 1.36 µg/mL) |
| c1csc(-c2nnc(Sc3ccnc(N4CCN(c5ccncc5)CC4)n3)n2CCCN2CCOCC2)c1 | 5.4 (≈ 2.97 µg/mL) |
| Br.Cc1ccccc1OCCCON1C(=N)N=C(N)NC1(C)C | 7 |
| Cc1ccc2c(CC(=O)Nc3nc(-c4ccccn4)cs3)coc2c1 | 10 (≈ 3.49 µg/mL) |
| Cc1ccc(C)c(-c2nnc(NC(=O)c3cccc(C(F)(F)F)c3)o2)c1 | 4.1 (≈ 1.48 µg/mL) |
| COc1ccc(CCNC(=O)c2c(C)nc3ccccn23)cc1 | 6.9 (≈ 2.13 µg/mL) |
| Cc1ccc(OCC(=O)Nc2cc(C)nn2-c2nc(C)cc(O)n2)cc1 | 3.6 (≈ 1.27 µg/mL) |
| Cc1ccc(SCCC(=O)Nc2nc(-c3ccccn3)cs2)cc1 | 4.4 (≈ 1.56 µg/mL) |
| Cc1cc(C)c2cc(C#N)c(N3CCCNCC3)nc2c1 | 4.3 (≈ 1.21 µg/mL) |
| CCSc1ccc(C(=O)Nc2nc(-c3ccccn3)cs2)cc1 | 2.3 (≈ 0.785 µg/mL) |
| O=C(Nc1ccc(OC(F)(F)F)cc1)NC1CCCCC1 | 4.8 (≈ 1.45 µg/mL) |
| N#Cc1nc(-c2ccccc2)oc1S(=O)(=O)c1ccc(Cl)cc1 | 3.6 (≈ 1.24 µg/mL) |
| N#Cc1ccc2c(c1)CCN(CCCSc1ccnc3cc(C(F)(F)F)ccc13)CC2 | 3.2 (≈ 1.41 µg/mL) |
